Columns and labels:
follicular lymphoma = assay: Blinatumomab treatment of patient 109-036 (follicular lymphoma): CT tumor response; format: in vivo, human; settings: Blinatumomab 5 μg/m^2/24 h for 1 week, then 60 μg/m^2/24 h, with PPS
Experimental: (§1) Patient was then treated for 7 weeks at 60 μg/m^2/24 h of Blinatumomab.
(§2) 6× CHOP 12/02-04/03 • 2. Induction according to Dexa-BEAM Protocol 05/03 • 3. Autologous SCT 08/03 • Date of last prior treatment: 08/03 • Treatment start: 10.5.2010 • Major Involvement: • 1. Supraclavicular • 2. Mediastinal • 3. Mesenterial (small intestinal involvement?) • 4W CT: PR -63% • 8W CT: CRu:-79% • EOS: 30.7.2010
(FL: follicular lymphoma, SCT: stem cell therapy, PR: partial remission, Cru: complete remission (unconfirmed), EOS: end of study).

B cell malignancies = settings: human, in vivo; cited from earlier work
non-Hodgkin's lymphoma = settings: cited from earlier work
[1] = system: neurological adverse effects caused by a CD3 binding domain; assay: PPS co-treatment of patient 109-036 during Blinatumomab start and dose escalation: neurological adverse effects; format: in vivo, human
Experimental: as §1, §2

[2] = continuous administration, non-Hodgkin's lymphoma patients

Question: With Blinatumomab as the substance, how does the “4W CT: change” value (follicular lymphoma; 4 weeks) read?
Answer: -63%

Question: And the “8W CT: change” value (follicular lymphoma; 8 weeks)?
Answer: -79%

Question: And the “8W CT: response category” value (follicular lymphoma; 8 weeks)?
Answer: CRu

Question: And the “Patients with an early neurological reaction” value (B cell malignancies)?
Answer: 7 out of 22

Question: What about the “Dose level at which partial and complete tumor regressions were first observed” value (non-Hodgkin's lymphoma; [2]) of the same substance?
Answer: 0.015 milligrams/m^2/d

Question: What about the “Effect on tumor cells in bone marrow and liver” value (non-Hodgkin's lymphoma; [2]) of the same substance?
Answer: clearance of tumor cells from bone marrow and liver

Question: And the “Patients who experienced a tumor regression” value (non-Hodgkin's lymphoma; dose level of 0.06 milligrams/m^2/d)?
Answer: all seven

Question: And the “Effect on lymphoma target cells in blood” value (non-Hodgkin's lymphoma; doses as low as 0.005 milligrams per square meter per day, continuous, four weeks)?
Answer: elimination of lymphoma target cells in blood

Question: And the “Neurological reactions in the clinical trial” value (non-Hodgkin's lymphoma; human, in vivo)?
Answer: neurological reactions have been found

Question: Which Apraxia and aphasia ([1]; patient 109-036, low B:T cell ratio, PPS 100 mg i.v. bolus 3 h before treatment start and before dose increase (day 8), then 300 mg/24 h for 48 h, Blinatumomab 5 then 60 μg/m^2/24 h) does the source give for “β-D-Xylan, (1-4), 2,3-bis(hydrogen sulphate) [PPS]” here?
Answer: prevented

Question: And the “Tremor (remaining neurological adverse effect)” value ([1]; patient 109-036, PPS 100 mg i.v. bolus then 300 mg/24 h for 48 h, Blinatumomab escalation to 60 μg/m^2/24 h)?
Answer: slight tremor
